# Values quoted from earlier work, collected in patent US5817883A, “Processes for producing hydroxyaldehydes” (Union Carbide Chemicals & Plastics Technology Corporation, priority 1997, dated 1998).
# Conditions: Table I, organophosphorus ligand basicity
row,SMILES,pKb
1,CCP(CC)C(C)(C)C [Diethyl-tert-butylphosphine],10.1
2,CCP(CC)c1ccccc1 [Diethylphenylphosphine],6.4
3,c1ccc(P(c2ccccc2)C2CCCCC2)cc1 [Diphenylcyclohexylphosphine],5
4,CCP(c1ccccc1)c1ccccc1 [Diphenylethylphosphine],4.9
5,CP(c1ccccc1)c1ccccc1 [Diphenylmethylphosphine],4.5
6,"CN(C)c1ccc(P(c2ccc(N(C)C)cc2)c2ccc(N(C)C)cc2)cc1 [Tri(p-N,N-dimethylaminophenyl)phosphine]",8.65
7,COc1ccc(P(c2ccc(OC)cc2)c2ccc(OC)cc2)cc1 [Tri(p-methoxyphenyl)phosphine],4.6
8,CCCCP(CCCC)CCCC [Tri-n-butylphosphine],8.4
9,CCCCCCCCP(CCCCCCCC)CCCCCCCC [Tri-n-octylphosphine],8.4
10,CCCP(CCC)CCC [Tri-n-propylphosphine],8.7
11,C1CCC(P(C2CCCCC2)C2CCCCC2)CC1 [Tricyclohexylphosphine],10
12,CCP(CC)CC [Triethylphosphine],8.7
13,CP(C)C [Trimethylphosphine],8.7
14,"c1ccc(P(c2ccccc2)c2ccccc2)cc1 [Triphenylphosphine, reference compound]",2.74

# Same assay, conditions: basicity of reference phosphine
row,SMILES,pKb
1,"c1ccc(P(c2ccccc2)c2ccccc2)cc1 [Triphenylphosphine, reference compound]",2.74
